Measured values reported in patent US11472826B2, “Acyclic antivirals” (priority 2016, dated 2022).

Assays:
[1] = system: VSV-G pseudotyped HIV NL4-3; test: microbe, parasite or virus in culture; type: cell-based; details: Human immunodeficiency virus 1, NL43, 72 h
HBV = test: microbe, parasite or virus in culture; type: cell-based; details: Hepatitis B virus; HepG2.117 cells, 72 hours, HBV viral copy numbers in supernatant; read-out: EC50

SMILES	EC50 [1] [µM]	EC50 (HBV) [µM]
C[C@H](Cc1ccc2c(N)ncnn12)OCP(=O)(O)O [Compound 2, (R)-(((1-(4-aminopyrrolo[2,1-f][1,2,4]triazin-7-yl)propan-2-yl)oxy)methyl)phosphonic Acid]	20 to 100	10 to 100
CC(C)OC(=O)OCOP(=O)(CO[C@@H](C)Cc1cnn2c(N)ncnc12)OCOC(=O)OC(C)C [Compound 14]	< 20	< 1
